doi:10.1101/2024.05.29.596450v1 (biorxiv, 2024)

System: Staphylococcus aureus MRSA (ATCC BAA-44)
Test: microbe, parasite or virus in culture
Parameters: species or system Staphylococcus aureus ATCC BAA-44
Settings: ATCCBAA44|MRSA, 18 h, read-out: %viability

CC1(C)S[C@@H]2[C@H](NC(=O)[C@H](N)c3ccc(O)cc3)C(=O)N2[C@H]1C(=O)O [Amoxicillin]
viability at 50 µM: 85%
